Key:
[1] = 101 kPa, Liquid
[2] = refractive index (Na D-line) (dimensionless); details: 101.33 kPa, Liquid
[3] = xn = mol fraction of the nth substance listed; details: 101 kPa, Liquid
[4] = refractive index (Na D-line) (dimensionless); xn = mol fraction of the nth substance listed; details: 101 kPa, Liquid

CCCCCCCCCCCC [dodecane]
Details	mass density, 293.15 K [kg/m3]	mass density, 298.15 K [kg/m3]	mass density, 303.15 K [kg/m3]	refractive index, 293.15 K	refractive index, 298.15 K	refractive index, 303.15 K	viscosity, 293.15 K [mPa·s]	viscosity, 298.15 K [mPa·s]	viscosity, 303.15 K [mPa·s]
[1]	748.78	745.14	741.52	–	–	–	1.487	1.373	1.25
[2]	–	–	–	1.421	1.4172	1.4135	–	–	–

CCCCCCC [heptane]
Details	mass density, 293.15 K [kg/m3]	mass density, 298.15 K [kg/m3]	mass density, 303.15 K [kg/m3]	refractive index, 293.15 K	refractive index, 298.15 K	refractive index, 303.15 K	viscosity, 293.15 K [mPa·s]	viscosity, 298.15 K [mPa·s]	viscosity, 303.15 K [mPa·s]
[1]	683.96	679.77	675.5	–	–	–	0.4127	0.3909	0.3702
[2]	–	–	–	1.3872	1.3855	1.3827	–	–	–

CCCCCC [hexane]
Details	mass density, 293.15 K [kg/m3]	mass density, 298.15 K [kg/m3]	mass density, 303.15 K [kg/m3]	refractive index, 293.15 K	refractive index, 298.15 K	refractive index, 303.15 K	viscosity, 293.15 K [mPa·s]	viscosity, 298.15 K [mPa·s]	viscosity, 303.15 K [mPa·s]
[1]	659.5	654.96	650.42	–	–	–	0.3114	0.2974	0.2838
[2]	–	–	–	1.3759	1.3732	1.3709	–	–	–

COc1ccccc1 [anisole] + CCCCCCCCCC
Details	mass density, 293.15 K [kg/m3]	mass density, 298.15 K [kg/m3]	mass density, 303.15 K [kg/m3]	refractive index, 293.15 K	refractive index, 298.15 K	refractive index, 303.15 K	viscosity, 293.15 K [mPa·s]	viscosity, 298.15 K [mPa·s]	viscosity, 303.15 K [mPa·s]
[3], x1 = 0.0846	742.22	738.35	734.48	–	–	–	0.8966	0.8362	0.7797
[3], x1 = 0.173	756.19	752.25	748.48	–	–	–	0.8837	0.8195	0.7679
[3], x1 = 0.2574	770.86	766.87	763.13	–	–	–	0.865	0.8019	0.7542
[3], x1 = 0.3675	792.19	788.11	784.45	–	–	–	0.8512	0.7887	0.7392
[3], x1 = 0.4546	811.1	806.89	803.36	–	–	–	0.8492	0.7883	0.7322
[3], x1 = 0.5661	838.25	833.93	830.59	–	–	–	0.8679	0.801	0.7387
[3], x1 = 0.6583	863.76	859.36	856.21	–	–	–	0.8896	0.8198	0.7585
[3], x1 = 0.7725	900.09	895.52	892.66	–	–	–	0.9343	0.8683	0.799
[3], x1 = 0.8798	940.35	935.67	933.11	–	–	–	0.9984	0.9296	0.8558
[3], x1 = 1	993.81	989.15	984.42	–	–	–	1.085	1.017	0.9285
[4], x1 = 0.1071	–	–	–	1.4198	1.4165	1.4131	–	–	–
[4], x1 = 0.1979	–	–	–	1.425	1.4218	1.4186	–	–	–
[4], x1 = 0.31	–	–	–	1.4328	1.4297	1.4269	–	–	–
[4], x1 = 0.409	–	–	–	1.4405	1.4374	1.4349	–	–	–
[4], x1 = 0.508	–	–	–	1.4495	1.4467	1.4443	–	–	–
[4], x1 = 0.6	–	–	–	1.4591	1.4563	1.4541	–	–	–
[4], x1 = 0.686	–	–	–	1.4694	1.4667	1.4645	–	–	–
[4], x1 = 0.789	–	–	–	1.4831	1.4803	1.4784	–	–	–
[4], x1 = 0.887	–	–	–	1.4973	1.4947	1.4927	–	–	–
[4], x1 = 1	–	–	–	1.5161	1.5141	1.5129	–	–	–

CCCCCCCCCC [decane] + COc1ccccc1
x2 = 0
Details	mass density, 293.15 K [kg/m3]	mass density, 298.15 K [kg/m3]	mass density, 303.15 K [kg/m3]	refractive index, 293.15 K	refractive index, 298.15 K	refractive index, 303.15 K	viscosity, 293.15 K [mPa·s]	viscosity, 298.15 K [mPa·s]	viscosity, 303.15 K [mPa·s]
[3]	729.91	726.16	722.36	–	–	–	0.9169	0.8512	0.7898
[4]	–	–	–	1.4148	1.4118	1.4089	–	–	–

CCCCCCCCCC [decane]
Details	mass density, 293.15 K [kg/m3]	mass density, 298.15 K [kg/m3]	mass density, 303.15 K [kg/m3]	refractive index, 293.15 K	refractive index, 298.15 K	refractive index, 303.15 K	viscosity, 293.15 K [mPa·s]	viscosity, 298.15 K [mPa·s]	viscosity, 303.15 K [mPa·s]
[1]	729.91	726.16	722.36	–	–	–	0.9169	0.8512	0.7898
[2]	–	–	–	1.4148	1.4118	1.4089	–	–	–

CCCCCCCCC [nonane] + COc1ccccc1
x2 = 0
Details	mass density, 293.15 K [kg/m3]	mass density, 298.15 K [kg/m3]	mass density, 303.15 K [kg/m3]	refractive index, 293.15 K	refractive index, 298.15 K	refractive index, 303.15 K	viscosity, 293.15 K [mPa·s]	viscosity, 298.15 K [mPa·s]	viscosity, 303.15 K [mPa·s]
[3]	717.59	713.71	709.81	–	–	–	0.7136	0.6715	0.6307
[4]	–	–	–	1.404	1.4027	1.4002	–	–	–

CCCCCCCC [octane] + COc1ccccc1
x2 = 0
Details	mass density, 293.15 K [kg/m3]	mass density, 298.15 K [kg/m3]	mass density, 303.15 K [kg/m3]	refractive index, 293.15 K	refractive index, 298.15 K	refractive index, 303.15 K	viscosity, 293.15 K [mPa·s]	viscosity, 298.15 K [mPa·s]	viscosity, 303.15 K [mPa·s]
[3]	702.61	698.57	694.56	–	–	–	0.5464	0.5123	0.483
[4]	–	–	–	1.3965	1.3947	1.3926	–	–	–

CCCCCCCCCCCC [dodecane] + COc1ccccc1
x2 = 0
Details	mass density, 293.15 K [kg/m3]	mass density, 298.15 K [kg/m3]	mass density, 303.15 K [kg/m3]	refractive index, 293.15 K	refractive index, 298.15 K	refractive index, 303.15 K	viscosity, 293.15 K [mPa·s]	viscosity, 298.15 K [mPa·s]	viscosity, 303.15 K [mPa·s]
[3]	748.78	745.14	741.52	–	–	–	1.487	1.373	1.25
[4]	–	–	–	1.421	1.4172	1.4135	–	–	–

COc1ccccc1 [anisole] + CCCCCCCCCCCC
Details	mass density, 293.15 K [kg/m3]	mass density, 298.15 K [kg/m3]	mass density, 303.15 K [kg/m3]	refractive index, 293.15 K	refractive index, 298.15 K	refractive index, 303.15 K	viscosity, 293.15 K [mPa·s]	viscosity, 298.15 K [mPa·s]	viscosity, 303.15 K [mPa·s]
[3], x1 = 0.0992	760.26	756.57	752.87	–	–	–	1.413	1.312	1.197
[3], x1 = 0.2015	773.6	769.83	766.07	–	–	–	1.341	1.248	1.138
[3], x1 = 0.2969	787.75	783.97	780.1	–	–	–	1.272	1.181	1.081
[3], x1 = 0.4102	807.23	803.3	799.35	–	–	–	1.19	1.104	1.003
[3], x1 = 0.4898	822.92	818.98	814.93	–	–	–	1.138	1.052	0.9616
[3], x1 = 0.6099	850.24	846.1	841.96	–	–	–	1.074	0.9944	0.9147
[3], x1 = 0.702	875.28	871.03	866.78	–	–	–	1.039	0.9639	0.8922
[3], x1 = 0.8023	907.62	903.24	898.86	–	–	–	1.032	0.9569	0.8858
[3], x1 = 0.8976	944.56	940.04	935.51	–	–	–	1.046	0.9718	0.9132
[3], x1 = 1	993.81	989.15	984.42	–	–	–	1.085	1.017	0.9285
[4], x1 = 0.106	–	–	–	1.4239	1.4199	1.4163	–	–	–
[4], x1 = 0.208	–	–	–	1.4289	1.4251	1.4213	–	–	–
[4], x1 = 0.29	–	–	–	1.4335	1.4298	1.4263	–	–	–
[4], x1 = 0.391	–	–	–	1.4406	1.4371	1.4339	–	–	–
[4], x1 = 0.4886	–	–	–	1.4488	1.4455	1.4426	–	–	–
[4], x1 = 0.607	–	–	–	1.4601	1.457	1.4545	–	–	–
[4], x1 = 0.7055	–	–	–	1.4707	1.4677	1.4654	–	–	–
[4], x1 = 0.7845	–	–	–	1.4809	1.4779	1.4756	–	–	–
[4], x1 = 0.88	–	–	–	1.4959	1.493	1.4908	–	–	–
[4], x1 = 1	–	–	–	1.5161	1.5141	1.5129	–	–	–

COc1ccccc1 [anisole] + CCCCCCCCC
Details	mass density, 293.15 K [kg/m3]	mass density, 298.15 K [kg/m3]	mass density, 303.15 K [kg/m3]	refractive index, 293.15 K	refractive index, 298.15 K	refractive index, 303.15 K	viscosity, 293.15 K [mPa·s]	viscosity, 298.15 K [mPa·s]	viscosity, 303.15 K [mPa·s]
[3], x1 = 0.1003	737.55	730.48	726.35	–	–	–	0.7027	0.6663	0.6209
[3], x1 = 0.1991	752.72	748.56	744.37	–	–	–	0.6975	0.6588	0.6172
[3], x1 = 0.2995	776.9	768.71	764.41	–	–	–	0.7043	0.662	0.6139
[3], x1 = 0.3997	795.17	790.9	786.51	–	–	–	0.7127	0.6693	0.6315
[3], x1 = 0.4998	819.75	815.37	810.88	–	–	–	0.7381	0.6982	0.6485
[3], x1 = 0.5907	844.35	839.87	835.33	–	–	–	0.7718	0.7299	0.6758
[3], x1 = 0.6975	876.64	872.08	867.39	–	–	–	0.8298	0.7801	0.7158
[3], x1 = 0.8008	911.95	907.24	902.38	–	–	–	0.9049	0.8452	0.7771
[3], x1 = 0.898	949.42	944.51	939.7	–	–	–	0.9871	0.9159	0.8365
[3], x1 = 1	993.81	989.15	984.42	–	–	–	1.085	1.017	0.9285
[4], x1 = 0.116	–	–	–	1.4119	1.4103	1.4074	–	–	–
[4], x1 = 0.218	–	–	–	1.4191	1.4173	1.4148	–	–	–
[4], x1 = 0.32	–	–	–	1.4276	1.4257	1.4234	–	–	–
[4], x1 = 0.413	–	–	–	1.4361	1.4343	1.432	–	–	–
[4], x1 = 0.4989	–	–	–	1.4448	1.443	1.4409	–	–	–
[4], x1 = 0.5907	–	–	–	1.4553	1.4534	1.4515	–	–	–
[4], x1 = 0.673	–	–	–	1.466	1.4639	1.4619	–	–	–
[4], x1 = 0.782	–	–	–	1.4811	1.4789	1.4771	–	–	–
[4], x1 = 0.8965	–	–	–	1.4984	1.4961	1.4944	–	–	–
[4], x1 = 1	–	–	–	1.5161	1.5141	1.5129	–	–	–
